Assay results: patent US11512224B2, “Water-based coating composition and production method of the same” (TOYOTA JIDOSHA KABUSHIKI KAISHA, priority 2018, dated 2022)
Blank lines part the entries; values can stand above or below the compound they belong to.

Test: Solubility in water at 20° C.
Conditions: for Solubility of organic solvent in water: 20° C.; for Solubility of curing catalyst in water: under atmospheric pressure at 20° C.

- Solubility of organic solvent in water: ≥ 10 or g/100 ml
- Solubility of organic solvent in water (listed as 1-methoxy-2-propanol): ≥ 10 g/100 ml
SMILES: COCC(C)O (stereo not shown) [PGME, 1-methoxy-2-propanol]

SMILES: C1CCC2=NCCCN2CC1.Cc1ccc(S(=O)(=O)O)cc1 [DBU salt, diazabicycloundecene p-toluenesulfonate]
- Solubility of curing catalyst in water (listed as diazabicycloundecene p-toluenesulfonate, p-toluenesulfonate): ≥ 0.5 g/100 ml
- Solubility of curing catalyst in water (p-toluenesulfonate): 5 or greater g/100 ml

SMILES: CC(C)O [IPA, 2-propanol]
- Solubility of organic solvent in water: ≥ 10 or g/100 ml
- Solubility of organic solvent in water (listed as 2-propanol): ≥ 10 g/100 ml

- Solubility of curing catalyst in water: 5 or greater g/100 ml
- Solubility of curing catalyst in water (listed as diazabicyclononene): ≥ 0.5 g/100 ml
SMILES: C1CN=C2CCCN2C1 [DBN, diazabicyclononene]

SMILES: C1CCC2=NCCCN2CC1 [DBU, diazabicycloundecene]
- Solubility of curing catalyst in water: 5 or greater g/100 ml
- Solubility of curing catalyst in water (listed as diazabicycloundecene): ≥ 0.5 g/100 ml
